One may read the viability as a read-out of living cells in per cent, often relative to untreated cells.

49 compounds from paper PMC11995724, “Antibiotic target discovery by integrated phenotypic and activity-based profiling of electrophilic fragments” (Cell chemical biology, 2025) can be followed below.

This data set can be described thus: in vitro. The note with it: human, hek293t cells.
As for `C=CC(=O)N[C@@H](CN(C)C)c1ccccc1` [2-M19, N-[(1R)-2-(dimethylamino)-1-phenylethyl]prop-2-enamide], the viability at 48 h, 25 µM was found to be 87.1%. Under `C=CC(=O)NCc1nc(OC)cc(OC)n1` [2-M20, N-[(4,6-dimethoxypyrimidin-2-yl)methyl]prop-2-enamide] stands 99.2%; under `C=CC(=O)Nc1ccc(C(=O)NC2CCN(S(C)(=O)=O)CC2)cc1` [2-M21, N-(1-methanesulfonylpiperidin-4-yl)-4-(prop-2-enamido)benzamide], 90.2%; under `C=CC(=O)NCc1nnc(C2CCOCC2)[nH]1` [2-M22, N-{[5-(oxan-4-yl)-4H-1,2,4-triazol-3-yl]methyl}prop-2-enamide], 93.3%. In the case of `C=CC(=O)NCc1nc2ccccc2n1C1CC1` [2-N03, N-[(1-cyclopropyl-1H-1,3-benzodiazol-2-yl)methyl]prop-2-enamide], the viability at 48 h, 25 µM turned out to be 69.4%. The result for `C=CC(=O)N(C)CC(=O)N1CCC(c2nc3c(s2)CCCC3)CC1` [2-N04, N-methyl-N-{2-oxo-2-[4-(4,5,6,7-tetrahydro-1,3-benzothiazol-2-yl)piperidin-1-yl]ethyl}prop-2-enamide] reads 92.5%; that for `C=CC(=O)NCCCn1ccnc1C#N` [2-N05, N-[3-(2-cyano-1H-imidazol-1-yl)propyl]prop-2-enamide], 76.3%.

Turning to `C=CC(=O)N(CC)CC(=O)NC1CCN(C(C)=O)c2ccccc21` (stereo not shown) [2-N06, N-{[(1-acetyl-1,2,3,4-tetrahydroquinolin-4-yl)carbamoyl]methyl}-N-ethylprop-2-enamide], the viability at 48 h, 25 µM is 99.7%.

Turning to `C=CC(=O)NC(c1nccs1)C(F)(F)F` (stereo not shown) [2-N07, N-[2,2,2-trifluoro-1-(1,3-thiazol-2-yl)ethyl]prop-2-enamide], the viability at 48 h, 25 µM stood at 84.1%. Under `C=CC(=O)N(C)CC(=O)N1CCc2ccc(S(C)(=O)=O)cc2CC1` [2-N08, N-[2-(7-methanesulfonyl-2,3,4,5-tetrahydro-1H-3-benzazepin-3-yl)-2-oxoethyl]-N-methylprop-2-enamide] stands 95.1%; under `C=CC(=O)NC(c1ccc(F)cc1)c1nccn1C` (stereo not shown) [2-N09, N-[(4-fluorophenyl)(1-methyl-1H-imidazol-2-yl)methyl]prop-2-enamide], 45.3%; under `C=CC(=O)N(C)CC(=O)N1CCN(c2nsc3ccccc23)CC1` [2-N10, N-{2-[4-(1,2-benzothiazol-3-yl)piperazin-1-yl]-2-oxoethyl}-N-methylprop-2-enamide], 1.45%. Turning to `C=CC(=O)NCCn1nnc2ccccc21` [2-N11, N-[2-(1H-1,2,3-benzotriazol-1-yl)ethyl]prop-2-enamide], the viability at 48 h, 25 µM was 67.3%. Under `C=CC(=O)N(CC)CC(=O)N1CCCC1c1cn(C)nc1C` (stereo not shown) [2-N12, N-{2-[2-(1,3-dimethyl-1H-pyrazol-4-yl)pyrrolidin-1-yl]-2-oxoethyl}-N-ethylprop-2-enamide] stands 85.2%; under `C=CC(=O)NCCCc1conc1C` [2-N13, N-[3-(3-methyl-1,2-oxazol-4-yl)propyl]prop-2-enamide], 70.3%. Take `C=CC(=O)N(C)CC(=O)NC1CCN(C(=O)c2ccc(C)cc2)CC1` [2-N14, N-methyl-N-({[1-(4-methylbenzoyl)piperidin-4-yl]carbamoyl}methyl)prop-2-enamide]: the viability at 48 h, 25 µM is 66.3%. Take `C=CC(=O)NCCn1cnc2ccsc2c1=O` [2-N15, N-(2-{4-oxo-3H,4H-thieno[3,2-d]pyrimidin-3-yl}ethyl)prop-2-enamide]: the viability at 48 h, 25 µM amounted to 66%. `C=CC(=O)N1CCC(C(=O)N2CCCC(c3cnn(C)c3)C2)CC1` (stereo not shown) [2-N16, 1-{4-[3-(1-methyl-1H-pyrazol-4-yl)piperidine-1-carbonyl]piperidin-1-yl}prop-2-en-1-one]: the viability at 48 h, 25 µM turned out to be 99.6%. The result for `C=CC(=O)N(C)Cc1noc(C2CC2)n1` [2-N17, N-[(5-cyclopropyl-1,2,4-oxadiazol-3-yl)methyl]-N-methylprop-2-enamide] reads 60.3%. For `C=CC(=O)Nc1ccc(C(=O)N2CCCCC2CS(C)(=O)=O)cc1` (stereo not shown) [2-N18, N-{4-[2-(methanesulfonylmethyl)piperidine-1-carbonyl]phenyl}prop-2-enamide], the viability at 48 h, 25 µM is 102%.

Consider `C=CC(=O)NCc1ncccc1-n1cccn1` [2-N19, N-{[3-(1H-pyrazol-1-yl)pyridin-2-yl]methyl}prop-2-enamide], for which the viability at 48 h, 25 µM is 70.3%. Consider `C=CC(=O)N1CCC(C(=O)N2CCCCCC2c2ccco2)CC1` (stereo not shown) [2-N20, 1-{4-[2-(furan-2-yl)azepane-1-carbonyl]piperidin-1-yl}prop-2-en-1-one], for which the viability at 48 h, 25 µM was 80.3%. Consider `C=CC(=O)N1CSCC1C(=O)N1CCOCC1` (stereo not shown) [2-N21, 1-[4-(morpholine-4-carbonyl)-1,3-thiazolidin-3-yl]prop-2-en-1-one], for which the viability at 48 h, 25 µM came to 74.9%. The result for `C=CC(=O)N(C)CC(=O)N1CCC2(CC1)CC2c1nnc(C(C)C)o1` (stereo not shown) [2-N22, N-methyl-N-(2-oxo-2-{1-[5-(propan-2-yl)-1,3,4-oxadiazol-2-yl]-6-azaspiro[2.5]octan-6-yl}ethyl)prop-2-enamide] reads 84.6%. Under `C=CC(=O)NCCc1ccccc1OC` [2-O03, N-[2-(2-methoxyphenyl)ethyl]prop-2-enamide] stands 105%; under `C=CC(=O)N1CCC(c2nc(C3CCC3)no2)CC1` [2-O04, 1-[4-(3-cyclobutyl-1,2,4-oxadiazol-5-yl)piperidin-1-yl]prop-2-en-1-one], 84.1%.

Turning to `C=CC(=O)N(Cc1ccc2cnn(C)c2c1)CC(C)(C)C` [2-O05, N-(2,2-dimethylpropyl)-N-[(1-methyl-1H-indazol-6-yl)methyl]prop-2-enamide], the viability at 48 h, 25 µM was determined as 102%. For `C=CC(=O)NCCNC(=O)C1CC12CCSCC2` (stereo not shown) [2-O06, N-[2-({6-thiaspiro[2.5]octan-1-yl}formamido)ethyl]prop-2-enamide], the viability at 48 h, 25 µM worked out at 88.3%. The result for `C=CC(=O)Nc1ccnn1C(C)C` [2-O07, N-[1-(propan-2-yl)-1H-pyrazol-5-yl]prop-2-enamide] reads 101%. The result for `C=CC(=O)NCCC(=O)NC1CCCCC12OCCO2` (stereo not shown) [2-O08, N-[2-({1,4-dioxaspiro[4.5]decan-6-yl}carbamoyl)ethyl]prop-2-enamide] reads 106%. Turning to `C=CC(=O)N(CC)Cc1cn(C)nn1` [2-O09, N-ethyl-N-[(1-methyl-1H-1,2,3-triazol-4-yl)methyl]prop-2-enamide], the viability at 48 h, 25 µM is 105%.

Consider `C=CC(=O)N1CCC(Cc2ccccc2)CC1` [2-O10, 1-(4-benzylpiperidin-1-yl)prop-2-en-1-one], for which the viability at 48 h, 25 µM turned out to be 73%. The result for `C=CC(=O)NCc1ccccc1CN1C(=O)NC2(CCCCC2)C1=O` [2-O11, N-{[2-({2,4-dioxo-1,3-diazaspiro[4.5]decan-3-yl}methyl)phenyl]methyl}prop-2-enamide] reads 71%; that for `C=CC(=O)Nc1cccc(C(F)(F)CF)c1` [2-O12, N-[3-(1,1,2-trifluoroethyl)phenyl]prop-2-enamide], 98.8%. The result for `C=CC(=O)NCC1CCC2(CCCOC2)O1` (stereo not shown) [2-O13, N-({1,7-dioxaspiro[4.5]decan-2-yl}methyl)prop-2-enamide] reads 168%; that for `C=CC(=O)Nc1cnc(S(C)(=O)=O)c(C)c1` [2-O14, N-(6-methanesulfonyl-5-methylpyridin-3-yl)prop-2-enamide], 99.6%; that for `C=CC(=O)N(C)Cc1conc1CC` [2-O15, N-[(3-ethyl-1,2-oxazol-4-yl)methyl]-N-methylprop-2-enamide], 187%. On to `C=CC(=O)N1CCOCC1c1cc(F)cc(F)c1` (stereo not shown) [2-O16, 1-[3-(3,5-difluorophenyl)morpholin-4-yl]prop-2-en-1-one], for which the viability at 48 h, 25 µM worked out at 81.8%.

On to `C=CC(=O)NCCc1ccnn1C` [2-O17, N-[2-(1-methyl-1H-pyrazol-5-yl)ethyl]prop-2-enamide], for which the viability at 48 h, 25 µM was 178%. Under `C=CC(=O)N(C)c1ccccc1C(=O)NC` [2-O18, N-methyl-2-(N-methylprop-2-enamido)benzamide] stands 114%. Take `C=CC(=O)N1CCC(CC(C)(C)C)C1` (stereo not shown) [2-O19, 1-[3-(2,2-dimethylpropyl)pyrrolidin-1-yl]prop-2-en-1-one]: the viability at 48 h, 25 µM is 147%. For the compound `C=CC(=O)NCC1(c2ccccc2)CC1(F)F` (stereo not shown) [2-O20, N-[(2,2-difluoro-1-phenylcyclopropyl)methyl]prop-2-enamide], the viability at 48 h, 25 µM was 113%. Turning to `C=CC(=O)Nc1ccc(C(=O)N2C[C@H](O)C[C@H]2C(=O)OC)cc1` [2-O21, methyl (2S,4R)-4-hydroxy-1-[4-(prop-2-enamido)benzoyl]pyrrolidine-2-carboxylate], the viability at 48 h, 25 µM was 145%. Under `C=CC(=O)NC1CC(=O)N(CC)C1` (stereo not shown) [2-O22, N-(1-ethyl-5-oxopyrrolidin-3-yl)prop-2-enamide] stands 91.7%; under `C=CC(=O)NCCc1ccn(-c2ccc(F)cc2)n1` [2-P03, N-{2-[1-(4-fluorophenyl)-1H-pyrazol-3-yl]ethyl}prop-2-enamide], 70.4%; under `C=CC(=O)N1CCC(C(=O)N(C)C(C)c2sc(CC)nc2C)CC1` (stereo not shown) [2-P04, N-[1-(2-ethyl-4-methyl-1,3-thiazol-5-yl)ethyl]-N-methyl-1-(prop-2-enoyl)piperidine-4-carboxamide], 95.1%. The result for `C=CC(=O)NC(C)C1(S(C)(=O)=O)CC1` (stereo not shown) [2-P05, N-[1-(1-methanesulfonylcyclopropyl)ethyl]prop-2-enamide] reads 84.3%; that for `C=CC(=O)N1CCC(C(=O)N2CCCC(O)C2)(c2ccccc2)CC1` (stereo not shown) [2-P06, 1-[4-(3-hydroxypiperidine-1-carbonyl)-4-phenylpiperidin-1-yl]prop-2-en-1-one], 93.3%; that for `C=CC(=O)NCCN1C(=O)COc2ccccc21` [2-P07, N-[2-(3-oxo-3,4-dihydro-2H-1,4-benzoxazin-4-yl)ethyl]prop-2-enamide], 60.4%.
